Legend:
wild type DXP synthase = wild type DXP synthase (Escherichia coli, UniProt P77488); experiment: Anaerobic limited trypsinolysis in the presence of MAP; set-up: species or system E. coli; conditions: preincubation with MAP 65 μM, 45 min, 6 °C; trypsin 4.5 ng/μL; up to 150 min
H49A DXP synthase = H49A DXP synthase (Escherichia coli, UniProt P77488, H49A); assay type: biochemical, E. coli
H49N DXP synthase = H49N DXP synthase (Escherichia coli, UniProt P77488, H49N); assay type: biochemical, E. coli; conditions: read-out: Km^app,pyruvate; anaerobic; pyruvate varied, D-GAP 500 μM; n = 3
H299A DXP synthase = H299A DXP synthase (Escherichia coli, UniProt P77488, H299A); assay type: biochemical, E. coli; conditions: H299A vs wild type
H299N DXP synthase = H299N DXP synthase (Escherichia coli, UniProt P77488, H299N); assay type: biochemical, E. coli
[1] = read-out: Km^app,pyruvate, anaerobic, pyruvate varied, D-GAP 500 μM, n = 3

Row | Compound | effect of MAP on trypsinolysis profile (wild type DXP synthase) | decrease in kcat/Km^pyruvate compared to wild type DXP synthase (H49A DXP synthase; H49A vs wild type) [fold] | Km (H49A DXP synthase; [1]) [µM] | Km (H49N DXP synthase) [µM] | decrease in kcat/Km^pyruvate relative to wild type DXP synthase (H299A DXP synthase) [fold] | decrease in kcat/Km^pyruvate relative to wild type DXP synthase (H299N DXP synthase; H299N vs wild type) [fold] | Km (H299N DXP synthase; [1]) [µM]
1 | COP(=O)(O)C(C)=O [MAP, methylacetylphosphonate] | K313 is protected from typsinolysis | – | – | – | – | – | –
2 | CC(=O)C(=O)O [pyruvate] | – | 76 | 1070 | 1610 | 846 | 185 | 1080

Source: paper PMC6905430 (Biochemistry, 2019)
